Test results from PubChem BioAssay (NCI).
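The compound was tested at five concentrations on cells cultured in 96-well plates, with a 48-hour exposure period. Here, GI50 denotes the concentration required for 50% inhibition of growth. Definition used: TGI = concentration required for complete inhibition of growth.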

How the values were obtained:
Assay in all cases: DTP human tumour cell line panel, 48 h
[1] = system: DU-145 prostate
[2] = system: SK-MEL-2 melanoma
[3] = system: UACC-257 melanoma
[4] = system: SW-620 colon
[5] = system: U251 CNS
[6] = system: RXF 393 renal
[7] = system: HS 578T breast
[8] = system: T-47D breast
[9] = system: CCRF-CEM leukemia
[10] = system: TK-10 renal
[11] = system: UACC-62 melanoma
[12] = system: HL-60(TB) leukemia
[13] = system: HCT-15 colon
[14] = system: A549 NSCLC
[15] = system: CAKI-1 renal
[16] = system: COLO 205 colon
[17] = system: OVCAR-3 ovarian
[18] = system: MDA-MB-231 breast
[19] = system: HCT-116 colon
[20] = system: K-562 leukemia
[21] = system: SF-539 CNS
[22] = system: OVCAR-8 ovarian
[23] = system: MCF7 breast
[24] = system: SF-295 CNS
[25] = system: BT-549 breast
[26] = system: ACHN renal
[27] = system: NCI-H522 lung
[28] = system: MALME-3M melanoma
[29] = system: OVCAR-4 ovarian
[30] = system: SNB-19 CNS
[31] = system: MDA-MB-468 breast
[32] = system: OVCAR-5 ovarian
[33] = system: NCI-H23 lung
[34] = system: SK-OV-3 ovarian
[35] = system: SF-268 CNS
[36] = system: SNB-75 CNS
[37] = system: A498 renal
[38] = system: M14 melanoma
[39] = system: LOX IMVI melanoma
[40] = system: HCC-2998 colon
[41] = system: MOLT-4 leukemia
[42] = system: UO-31 renal
[43] = system: NCI-H460 lung
[44] = system: NCI/ADR-RES ovarian
[45] = system: NCI-H226 lung
[46] = system: RPMI-8226 leukemia
[47] = system: SK-MEL-28 melanoma
[48] = system: PC-3 prostate
[49] = system: SK-MEL-5 melanoma
[50] = system: HOP-62 NSCLC
[51] = system: MDA-MB-435
[52] = system: HOP-92 NSCLC
[53] = system: IGROV1 ovarian
[54] = system: SR leukemia
[55] = system: 786-0 renal
[56] = system: SN12C renal
[57] = system: EKVX NSCLC
[58] = system: KM12 colon
[59] = system: HT29 colon

In the case of `CC1(c2ccccc2)NC(=O)N(CC(=O)Nc2ccc(C(=O)/C=C/c3ccc(Cl)cc3)cc2)C1=O` (stereo not drawn), the GI50 [1] is reported as 12.3 µM, the TGI [1] is reported as 26.2 µM and the GI50 [2] is reported as 11.5 µM. For the same compound, the TGI [2] was 28 µM, the GI50 [3] was 11.3 µM and the TGI [3] was 25.7 µM. For the same compound, the GI50 [4] was 5.93 µM, the TGI [4] was 20.7 µM and the GI50 [5] was 3.16 µM. For the same compound, the TGI [5] was 14.3 µM, the GI50 [6] was 2.97 µM and the TGI [6] was 13.6 µM. It also gave a GI50 [7] of 12.7 µM, a TGI [7] greater than 100 µM and a GI50 [8] of 2.59 µM. The TGI [8] was 14.6 µM, the GI50 [9] was 4 µM and the TGI [9] was 30.8 µM. It also gave a GI50 [10] of 10.8 µM, a TGI [10] of 35.4 µM and a GI50 [11] of 4.07 µM. For the same compound, the TGI [11] was 17.8 µM, the GI50 [12] was 4.06 µM and the TGI [12] was 30.9 µM. It also gave a GI50 [13] of 4.55 µM, a TGI [13] of 18.4 µM and a GI50 [14] of 4.25 µM. It also gave a TGI [14] of 20 µM, a GI50 [15] of 5.51 µM and a TGI [15] of 20.7 µM. For the same compound, the GI50 [16] was 13.2 µM, the TGI [16] was 29.7 µM and the GI50 [17] was 7.1 µM. The TGI [17] was 21.9 µM, the GI50 [18] was 5.97 µM and the TGI [18] was 21.6 µM. The GI50 [19] was 1.37 µM, the TGI [19] was 2.8 µM and the GI50 [20] was 3.09 µM. For the same compound, the TGI [20] was 13.1 µM, the GI50 [21] was 6.15 µM and the TGI [21] was 19.1 µM. It also gave a GI50 [22] of 10.7 µM, a TGI [22] of 52.5 µM and a GI50 [23] of 1.96 µM. It also gave a TGI [23] of 5.28 µM, a GI50 [24] of 4.34 µM and a TGI [24] of 16.6 µM. For the same compound, the GI50 [25] was 4.78 µM, the TGI [25] was 19 µM and the GI50 [26] was 4.92 µM. The TGI [26] was 17.7 µM, the GI50 [27] was 6.69 µM and the TGI [27] was 30 µM. It also gave a GI50 [28] of 13.1 µM, a TGI [28] of 30.8 µM and a GI50 [29] of 7.35 µM. For the same compound, the TGI [29] was 36.1 µM, the GI50 [30] was 11.2 µM and the TGI [30] was 24.4 µM. It also gave a GI50 [31] of 2.85 µM, a TGI [31] of 12.3 µM and a GI50 [32] of 13.3 µM. The TGI [32] was 29 µM, the GI50 [33] was 11.7 µM and the TGI [33] was 24.8 µM. For the same compound, the GI50 [34] was 16 µM, the TGI [34] was 44.6 µM and the GI50 [35] was 6.51 µM. For the same compound, the TGI [35] was 31.5 µM, the GI50 [36] was 1.48 µM and the TGI [36] was 21.8 µM. It also gave a GI50 [37] of 14.4 µM, a TGI [37] of 38.2 µM and a GI50 [38] of 3.22 µM. For the same compound, the TGI [38] was 12 µM, the GI50 [39] was 2.95 µM and the TGI [39] was 11.1 µM. For the same compound, the GI50 [40] was 1.79 µM, the TGI [40] was 3.63 µM and the GI50 [41] was 3.02 µM. For the same compound, the TGI [41] was 23.1 µM, the GI50 [42] was 4.06 µM and the TGI [42] was 18 µM. It also gave a GI50 [43] of 12 µM, a TGI [43] of 27.8 µM and a GI50 [44] of 13.5 µM. The TGI [44] was 46.4 µM, the GI50 [45] was 9.09 µM and the TGI [45] was 52.3 µM. For the same compound, the GI50 [46] was 1.93 µM, the TGI [46] was 5.07 µM and the GI50 [47] was 10.8 µM. The TGI [47] was 23.2 µM, the GI50 [48] was 3.61 µM and the TGI [48] was 27.6 µM. The GI50 [49] was 4.72 µM, the TGI [49] was 16.6 µM and the GI50 [50] was 12.5 µM. For the same compound, the TGI [50] was 29.8 µM, the GI50 [51] was 2.15 µM and the TGI [51] was 4.83 µM. It also gave a GI50 [52] of 6.25 µM, a TGI [52] of 53.7 µM and a GI50 [53] of 9.27 µM. It also gave a TGI [53] of 22.3 µM, a GI50 [54] of 2.99 µM and a TGI [54] greater than 100 µM. The GI50 [55] was 7.48 µM, the TGI [55] was 21 µM and the GI50 [56] was 7.96 µM. It also gave a TGI [56] of 25.4 µM, a GI50 [57] of 4.64 µM and a TGI [57] of 23.5 µM. It also gave a GI50 [58] of 2.54 µM, a TGI [58] of 6.87 µM and a GI50 [59] of 3.7 µM. For the same compound, the TGI [59] was 15.7 µM.
